The source of these data is the supplement of paper PMC10307832.

Test in all cases: relative viability (nuclei count vs DMSO), 5 days (fraction); higher = more cells survive
Compound in test [1]: NCC(=O)Nc1ccc(-n2nc(C(F)(F)F)cc2-c2ccc3c(ccc4ccccc43)c2)cc1 + CCNC(=O)c1noc(-c2cc(C(C)C)c(O)cc2O)c1-c1ccc(CN2CCOCC2)cc1 [Luminespib] (partner 0.01 µM)
The gist of the method:
(§1)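 Lung cancer cell lines in 1536-well plates were dosed by pin tool the day after seeding, either with one drug alone or with a fixed anchor-drug dose plus five library-drug doses (not always all listed) in √10 steps. After 5 days, cells were fixed and their nuclei stained in one step (final 0.05% Triton X-100, 1% formaldehyde, 1 ug/ml Hoechst), then counted on 4× images. Relative viability is the nuclei count in treated wells divided by that in vehicle wells. Values are medians of duplicate plates.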

Compound in test [2]: C1CSC2=C(C(=O)N1)SC3=C2C=C(C=C3)O [kb NB 142-70] + CS(=O)(=O)CCNCc1ccc(-c2ccc3ncnc(Nc4ccc(OCc5cccc(F)c5)c(Cl)c4)c3c2)o1 [Lapatinib] (partner 2 µM)
The gist of the method:
as §1

Compound in test [3]: NCC(=O)Nc1ccc(-n2nc(C(F)(F)F)cc2-c2ccc3c(ccc4ccccc43)c2)cc1 + Cc1nc(Nc2ncc(C(=O)Nc3c(C)cccc3Cl)s2)cc(N2CCN(CCO)CC2)n1 [Dasatinib] (partner 0.075 µM)
The gist of the method:
as §1

Compound in test [4]: NCC(=O)Nc1ccc(-n2nc(C(F)(F)F)cc2-c2ccc3c(ccc4ccccc43)c2)cc1 + NC(=O)Nc1cc(-c2cccc(F)c2)sc1C(=O)N[C@H]1CCCNC1 [AZD7762] (partner 0.2 µM)
In a few lines: as §1

Take NCI-H2347: the relative viability in test [1] (first compound 0.02 µM) turned out to be 0.427; in test [1] (first compound 0.06325 µM) it was 0.634; in test [1] (first compound 0.2 µM) it was 0.7; in test [1] (first compound 0.6325 µM), 0.686; in test [1] (first compound 2 µM), 0.7; in test [2] (first compound 0.1 µM), 1.02. In addition, the relative viability in test [2] (first compound 1 µM) came out at 1.07; in test [2] (first compound 3.162 µM) it was 0.936; in test [3] (first compound 0.02 µM), 0.36; in test [3] (first compound 0.06325 µM) it was 0.365; in test [3] (first compound 0.2 µM), 0.301; in test [3] (first compound 0.6325 µM) it was 0.326. In addition, the relative viability in test [3] (first compound 2 µM) stood at 0.298; in test [4] (first compound 0.02 µM) it was 0.719; in test [4] (first compound 0.06325 µM), 0.696; in test [4] (first compound 0.2 µM), 0.756; in test [4] (first compound 0.6325 µM), 0.817; in test [4] (first compound 2 µM) it was 0.75.
For the cell line NCI-H2405, the relative viability in test [1] (first compound 0.02 µM) was determined as 0.686; in test [1] (first compound 0.06325 µM), 0.74; in test [1] (first compound 0.2 µM) it was 0.606; in test [1] (first compound 0.6325 µM), 0.732; in test [1] (first compound 2 µM) it was 0.746; in test [2] (first compound 0.1 µM) it was 1.11. Besides, the relative viability turned out to be 1.07 in test [2] (first compound 1 µM); 0.896 in test [2] (first compound 3.162 µM); 0.225 in test [3] (first compound 0.02 µM); 0.202 in test [3] (first compound 0.06325 µM); 0.185 in test [3] (first compound 0.2 µM); 0.201 in test [3] (first compound 0.6325 µM). For the same cell line, the relative viability in test [3] (first compound 2 µM) is 0.221; in test [4] (first compound 0.02 µM) it was 0.725; in test [4] (first compound 0.06325 µM) it was 0.781; in test [4] (first compound 0.2 µM) it was 0.774; in test [4] (first compound 0.6325 µM), 0.728; in test [4] (first compound 2 µM), 0.718.
For the cell line NCI-H3122, the relative viability in test [1] (first compound 0.02 µM) was 0.0686; in test [1] (first compound 0.06325 µM), 0.0831; in test [1] (first compound 0.2 µM), 0.127; in test [1] (first compound 0.6325 µM) it was 0.113; in test [1] (first compound 2 µM), 0.116; in test [2] (first compound 0.1 µM), 0.872. For the same cell line, the relative viability in test [2] (first compound 1 µM) worked out at 1.01; in test [2] (first compound 3.162 µM), 0.947; in test [3] (first compound 0.02 µM) it was 0.862; in test [3] (first compound 0.06325 µM), 0.837; in test [3] (first compound 0.2 µM), 0.824; in test [3] (first compound 0.6325 µM) it was 0.912. Also, the relative viability was found to be 0.799 in test [3] (first compound 2 µM); 0.897 in test [4] (first compound 0.02 µM); 0.983 in test [4] (first compound 0.06325 µM); 1 in test [4] (first compound 0.2 µM); 1.01 in test [4] (first compound 0.6325 µM); 0.969 in test [4] (first compound 2 µM).
Take PC-3 [JPC-3]: the relative viability in test [1] (first compound 0.02 µM) worked out at 0.66; in test [1] (first compound 0.06325 µM) it was 0.709; in test [1] (first compound 0.2 µM), 0.728; in test [1] (first compound 0.6325 µM), 0.724; in test [1] (first compound 2 µM), 0.776; in test [2] (first compound 0.1 µM) it was 0.452. Further, the relative viability in test [2] (first compound 1 µM) is 0.481; in test [2] (first compound 3.162 µM), 0.433; in test [3] (first compound 0.02 µM), 1.08; in test [3] (first compound 0.06325 µM) it was 0.981; in test [3] (first compound 0.2 µM), 1.02; in test [3] (first compound 0.6325 µM), 1.03. Further, the relative viability is 1.11 in test [3] (first compound 2 µM); 0.792 in test [4] (first compound 0.02 µM); 0.873 in test [4] (first compound 0.06325 µM); 0.85 in test [4] (first compound 0.2 µM); 0.88 in test [4] (first compound 0.6325 µM); 0.832 in test [4] (first compound 2 µM).
Turning to PC-14, the relative viability in test [1] (first compound 0.02 µM) is 0.146; in test [1] (first compound 0.06325 µM) it was 0.154; in test [1] (first compound 0.2 µM), 0.19; in test [1] (first compound 0.6325 µM), 0.218; in test [1] (first compound 2 µM), 0.182; in test [2] (first compound 0.1 µM), 0.362. Further, the relative viability is 0.304 in test [2] (first compound 1 µM); 0.341 in test [2] (first compound 3.162 µM); 0.281 in test [3] (first compound 0.02 µM); 0.303 in test [3] (first compound 0.06325 µM); 0.297 in test [3] (first compound 0.2 µM); 0.234 in test [3] (first compound 0.6325 µM). In addition, the relative viability was 0.302 in test [3] (first compound 2 µM); 0.419 in test [4] (first compound 0.02 µM); 0.367 in test [4] (first compound 0.06325 µM); 0.36 in test [4] (first compound 0.2 µM); 0.328 in test [4] (first compound 0.6325 µM); 0.381 in test [4] (first compound 2 µM).
With RERF-LC-KJ, the relative viability in test [1] (first compound 0.02 µM) was 1.32; in test [1] (first compound 0.06325 µM) it was 1.29; in test [1] (first compound 0.2 µM), 1.27; in test [1] (first compound 0.6325 µM), 1.19; in test [1] (first compound 2 µM), 1.1; in test [2] (first compound 0.1 µM), 0.956. The relative viability in test [2] (first compound 1 µM) stood at 0.88; in test [2] (first compound 3.162 µM) it was 0.942; in test [3] (first compound 0.02 µM), 0.809; in test [3] (first compound 0.06325 µM), 0.985; in test [3] (first compound 0.2 µM) it was 0.835; in test [3] (first compound 0.6325 µM), 0.878. Moreover, the relative viability in test [3] (first compound 2 µM) is 0.76; in test [4] (first compound 0.02 µM), 0.959; in test [4] (first compound 0.06325 µM) it was 0.863; in test [4] (first compound 0.2 µM) it was 0.996; in test [4] (first compound 0.6325 µM), 1.12; in test [4] (first compound 2 µM), 1.03.
